Source: patent US10662218B2, “Analogs of celastrol” (ERX Pharmaceuticals, Inc., priority 2015, dated 2020)
Values after ≈ are worked out from the molar mass of the structure shown. Values joined by “and” are separate entries in the source; they are usually repeats but may differ in a detail not shown here. Identical values can stand only once. Like-named read-outs stand apart in the source and are kept apart here.

Columns and labels:
[1] = test system: C57BL/6 Diet Induced Obese (DIO) mice; test: Oral (P.O.) administration study in DIO mice: in vivo activity, body weights; parameters: species or system mouse; settings: for change in vivo at 2 mg/kg: Mus musculus, po, read-out: Body weight, %-Diff; for Individual Body Weight: individual male animals
Description: The purpose of this study was to assess test articles in the Diet Induced Obese (DIO) mouse.
Male C57BL/6 Diet Induced Obese (DIO) mice were received from Taconic. Animals were acclimated to housing conditions for at least 1 week prior to vehicle acclimation dosing. Animals were acclimated to oral gavage dosing with vehicle once daily for Days 11 through 14 of the predose phase.
At initiation of dosing, animals were 21 to 22 weeks old, and their body weights ranged from 29.8 to 40.1 g.
Dose formulations were administered by oral gavage once daily for 10 days at a dose volume of 2 mL/kg. Doses were based on the most recently recorded scheduled body weight.
Body weights were recorded daily on Days 11 through 14 of the predose phase. Body weights were collected for all animals daily during the dosing phase prior to dosing.
Descriptive statistics (n, mean, standard error of the mean, standard deviation) were completed. Additionally, one-way analysis of variance followed by Dunnett's post-hoc test were performed on body weight (cumulative body weight change), glucose (glucose percent change), and food consumption (cumulative food consumption). Area under the curve (for body weight, cumulative body weight change, daily body weight change, and food consumption) was computed for treatment groups. An appropriate comparison test, such as one-way analysis of variance and Dunnett's, was performed on the group means for the area under the curve computations. Any additional statistical analysis and interpretation of the results were the responsibility of the sponsor.

[2] = test system: C57BL/6 Diet Induced Obese (DIO) mice; test: Oral (P.O.) administration study in DIO mice: animal fate (mortality) and clinical observations; settings: 2 mg/kg
Description: Male C57BL/6 DIO mice were assigned to 12 groups, and doses of 2 mg/kg Celastrol (ERX1000-4), ERX1006, ERX1007, ERX1037, ERX1060, ERX1077, ERX1107, ERX1149, ERX1168, ERX1177, and Pristimerin were administered to Groups 2 through 12, respectively. Animals were dosed via oral gavage once daily for 10 days at a volume of 2 mL/kg. The vehicle control article was 1% methyl cellulose (400 cps) in citric acid and phosphate buffer.
Parameters assessed included mortality, clinical observations, body weights and food consumption and blood glucose evaluations.
All animals were anesthetized via carbon dioxide, sacrificed, and discarded without further evaluation on Day 11.

[3] = Compound solubility in PBS (pH 7.4), LC-MS/MS; settings: PBS (pH 7.4), pH 7.4, aqueous buffer, kinetic from dmso stock
Description: • Test concentration: 100 μM (1% of DMSO) • Test systems: PBS (pH 7.4) • Incubation condition: shaken (1000 rpm) for 1 h at room temperature • Sample size: Duplicates (n=2) • Bioanalytical method: LC-MS/MS

[4] = DIO mice, male, 2 mg/kg, phase DSNG, Day 7
[5] = DIO mice, male, 2 mg/kg, phase DSNG, Day 8
[6] = DIO mice, male, 2 mg/kg, phase DSNG, Day 9
[7] = DIO mice, male, 2 mg/kg, phase DSNG, Day 10
[8] = DIO mice, male, 2 mg/kg, phase DSNG, Day 11
[9] = Day 1, DSNG phase, 2 mg/kg, male, N=5
[10] = Day 2, DSNG phase, 2 mg/kg, male, N=5
[11] = Day 3, DSNG phase, 2 mg/kg, male, N=5
[12] = Day 4, DSNG phase, 2 mg/kg, male, N=5
[13] = Day 5, DSNG phase, 2 mg/kg, male, N=5
[14] = Day 6, DSNG phase, 2 mg/kg, male, N=5
[15] = 2 mg/kg, Phase Day PRED 11 (pre-dose baseline)
[16] = 2 mg/kg, Phase Day PRED 12 (pre-dose baseline)
[17] = 2 mg/kg, Phase Day PRED 13 (pre-dose baseline)
[18] = 2 mg/kg, Phase Day PRED 14 (pre-dose baseline)
[19] = 24 h, Day 1, DSNG phase, 2 mg/kg, male, difference of group mean
[20] = 48 h, Day 2, DSNG phase, 2 mg/kg, male, difference of group mean
[21] = 72 h, Day 3, DSNG phase, 2 mg/kg, male, difference of group mean
[22] = 96 h, Day 4, DSNG phase, 2 mg/kg, male, difference of group mean
[23] = 120 h, Day 5, DSNG phase, 2 mg/kg, male, difference of group mean
[24] = 144 h, Day 6, DSNG phase, 2 mg/kg, male, difference of group mean
[25] = 168 h, DIO mice, male, 2 mg/kg, phase DSNG, Day 7, difference of group mean from vehicle group 1
[26] = 192 h, DIO mice, male, 2 mg/kg, phase DSNG, Day 8, difference of group mean from vehicle group 1
[27] = 216 h, DIO mice, male, 2 mg/kg, phase DSNG, Day 9, difference of group mean from vehicle group 1
[28] = 240 h, DIO mice, male, 2 mg/kg, phase DSNG, Day 10, difference of group mean from vehicle group 1
[29] = 264 h, DIO mice, male, 2 mg/kg, phase DSNG, Day 11, difference of group mean from vehicle group 1

| Structure (SMILES) | Body weight, Mean [1, 4] [g] | Body weight, Mean [1, 5] [g] | Body weight, Mean [1, 6] [g] | Body weight, Mean [1, 7] [g] | Body weight, Mean [1, 8] [g] | Body weight, Mean [1, 9] [g] | Body weight, Mean [1, 10] [g] | Body weight, Mean [1, 11] [g] | Body weight, Mean [1, 12] [g] | Body weight, Mean [1, 13] [g] | Body weight, Mean [1, 14] [g] | Individual Body Weight ([1]; 2 mg/kg, Phase Day DSNG 1) | Individual Body Weight ([1]; 2 mg/kg, Phase Day DSNG 2) | Individual Body Weight [1, 15] | Individual Body Weight [1, 16] | Individual Body Weight [1, 17] | Individual Body Weight [1, 18] | change in vivo at 2 mg/kg [1, 19] [%] | change in vivo at 2 mg/kg [1, 20] [%] | change in vivo at 2 mg/kg [1, 21] [%] | also measured |
| --- | --- | --- | --- | --- | --- | --- | --- | --- | --- | --- | --- | --- | --- | --- | --- | --- | --- | --- | --- | --- | --- |
| COC(=O)[C@]1(C)CC[C@]2(C)CC[C@]3(C)C4=CC=C5C(=CC(=O)C(O)=C5C)[C@]4(C)CC[C@@]3(C)[C@@H]2C1 [Pristimerin, reference compound] | 33.5 | 33.1 | 32.9 | 33.2 | 33.9 | 34.2 | 34.0 | 33.7 | 33.3 | 33.3 | 33.4 | – | – | – | – | – | – | – | – | – | change in vivo at 2 mg/kg ([1]; 24 h): 0%; change in vivo at 2 mg/kg ([1]; 48 h): -1%; change in vivo at 2 mg/kg ([1]; 72 h): -1%; change in vivo at 2 mg/kg ([1]; 96 h): 0%; change in vivo at 2 mg/kg ([1]; 120 h): -1%; change in vivo at 2 mg/kg ([1]; 144 h): 0%; change in vivo at 2 mg/kg ([1]; 168 h): 0%; change in vivo at 2 mg/kg ([1]; 192 h): -2%; change in vivo at 2 mg/kg ([1]; 216 h): -1%; change in vivo at 2 mg/kg ([1]; 240 h): -1%; change in vivo at 2 mg/kg ([1]; 264 h): -1%; Individual Body Weight, PRED 11 ([1]; individual male DIO mouse of the 2 mg/kg group, pre-dose phase day 11 (baseline)): 42.4 g and 35.2 g and 31.7 g and 38.2 g and 33.9 g; Individual Body Weight, PRED 12 ([1]; individual male DIO mouse of the 2 mg/kg group, pre-dose phase day 12 (baseline)): 41.2 g and 34.5 g and 31.0 g and 37.5 g and 32.5 g; Individual Body Weight, PRED 13 ([1]; individual male DIO mouse of the 2 mg/kg group, pre-dose phase day 13 (baseline)): 41.3 g and 33.4 g and 31.4 g and 37.3 g and 32.9 g; Individual Body Weight, PRED 14 ([1]; individual male DIO mouse of the 2 mg/kg group, pre-dose phase day 14 (baseline)): 41.9 g and 35.0 g and 31.6 g and 37.6 g and 33.1 g; Individual Body Weight, DSNG 1 ([1]; individual male DIO mouse, 2 mg/kg, dosing phase day 1, 2 mg/kg): 40.0 g and 33.3 g and 29.8 g and 35.5 g and 32.3 g; Individual Body Weight, DSNG 2 ([1]; individual male DIO mouse, 2 mg/kg, dosing phase day 2, 2 mg/kg): 39.4 g and 33.1 g and 30.2 g and 35.4 g and 32.1 g; Individual Animal Fate: Fate Status ([2]; individual male DIO mouse, phase of fate Dosing, phase week 2, phase day 11): Scheduled Sacrifice |
| CCOC1=C(C)C2=CC=C3[C@@](C)(CC[C@@]4(C)[C@@H]5C[C@](C)(C(N)=O)CC[C@]5(C)CC[C@]34C)C2=CC1=O [ERX1107] | 32.4 | 32.3 | 32.2 | 32.4 | 32.7 | 34.2 | 34.3 | 33.4 | 33.2 | 33.1 | 32.7 | 33.6 g and 35.8 g and 36.3 g and 31.2 g and 34.1 g | 33.5 g and 36.5 g (2×) and 31.0 g and 33.9 g | 34.1 g (2×) and 36.6 g and 37.7 g and 36.2 g | 35.1 g and 37.5 g and 37.9 g and 33.2 g and 34.6 g | 34.9 g and 38.0 g and 37.6 g and 31.9 g and 33.8 g | 35.1 g and 37.5 g and 37.7 g and 32.5 g and 34.6 g | 0 | -1 | -1 | change in vivo at 2 mg/kg [1, 22]: -1%; change in vivo at 2 mg/kg [1, 23]: -2%; change in vivo at 2 mg/kg [1, 24]: -2%; change in vivo at 2 mg/kg [1, 25]: -3%; change in vivo at 2 mg/kg [1, 26]: -4%; change in vivo at 2 mg/kg [1, 27]: -3%; change in vivo at 2 mg/kg [1, 28]: -3%; change in vivo at 2 mg/kg [1, 29]: -4%; Individual Animal Fate: Fate Status ([2]; mouse, in vivo): Scheduled Sacrifice; solubility at 1 h ([3]; Solubility (μM) Mean, Table 6-B, test concentration 100 μM (1% of DMSO), shaken (1000 rpm) 1 h at room temperature, n = 2): 11.4 µM (≈ 5.45 µg/mL); solubility at 1 h ([3]; Solubility (μM), Table 6-D): 11.4 µM (≈ 5.45 µg/mL) |
| CC(=O)N(C)C[C@]1(C)CC[C@]2(C)CC[C@]3(C)C4=CC=C5C(=CC(=O)C(O)=C5C)[C@]4(C)CC[C@@]3(C)[C@@H]2C1 [ERX1149] | 32.8 | 33.3 | 33.1 | 33.5 | 33.6 | 34.9 | 34.5 | 34.1 | 34.0 | 33.5 | 33.1 | 33.3 g and 35.8 g and 39.7 g and 31.5 g and 34.3 g | 32.2 g and 34.8 g and 39.9 g and 31.7 g and 34.1 g | 33.3 g and 38.3 g and 41.4 g and 33.7 g and 35.6 g | 33.3 g and 37.3 g and 41.5 g and 33.4 g and 36.3 g | 33.1 g and 36.8 g and 41.4 g and 32.3 g and 35.2 g | 33.5 g and 36.1 g and 41.0 g and 32.5 g and 36.5 g | 2 | 0 | 1 | change in vivo at 2 mg/kg [1, 22]: 2%; change in vivo at 2 mg/kg [1, 23]: -1%; change in vivo at 2 mg/kg [1, 24]: -1%; change in vivo at 2 mg/kg [1, 25]: -2%; change in vivo at 2 mg/kg [1, 26]: -1%; change in vivo at 2 mg/kg [1, 27]: 0%; change in vivo at 2 mg/kg [1, 28]: 0%; change in vivo at 2 mg/kg [1, 29]: -1%; Individual Animal Fate: Fate Status ([2]; mouse, in vivo): Scheduled Sacrifice |
